“Also recorded” adds a separate entry of the source. Peptide text beside a SMILES is read from it. * marks the point of attachment. Cbz = O=C(OCc1ccccc1)*; CH2F = FC*
What was measured:
pig kidneys = assay: TUNEL staining for cell death in cold stored pig kidneys; conditions: flushed and stored at 4° C. in University of Wisconsin solution with 10 μg/mL, 72 hours
Source text: (§1) Methods: TUNEL Staining and Quantification. Frozen kidney sections were fixed with 4% paraformaldehyde and stained according to standard protocols for the In Situ Cell Death Detection Kit, TMR red (Millipore Sigma). The number of DAPI positive and TUNEL positive cells were quantified using cell counter macros in ImageJ across mouse, pig, and human samples.
(§2) Murine and Porcine Kidney Recoveries. Mouse and pig kidneys were recovered using standard organ recovery protocols. Prior to flushing the abdominal cavity with preservation solution, mice and pigs were given heparin to help increase flow and prevent clotting within the system.
(§3) Mice were flushed with BAI supplemented University of Wisconsin solution (2 mg/kg total mouse weight) at time of organ recovery. Mouse kidneys were stored in the same concentration of BAI1 supplemented preservation solution that was used to flush the mice at time of organ harvest. Pig kidneys were flushed with 500 mL of University of Wisconsin solution supplemented with BAI1 at 10 μg/mL. They were then stored at 4° C. in 500 mL of University of Wisconsin solution supplemented with BAI1 at 10 μg/mL for 72 hours.

human organ culture = assay: Cell death in human organ culture model (kidney)
Experimental: as §1
To better appreciate how kidneys respond to cold ischemia, a series of […] kidneys was biopsied at times from 12 to 72 hours of cold storage. To decreased observed cell death, a Bax inhibitor (BAI1) was tested in a human organ culture model.
To assess the extent of cell death during cold preservation, a series of eleven human kidneys were repeatedly biopsied at times from 12 to 72 hours of cold storage. […] Cell death increased over time and became apparent in marginal donors between 30-36 hours of cold storage. Human kidneys with the cell death phenotype were also shown to have distinct upregulation of metabolites (e.g. xylose, isothreonic acid, 3-hydroxy-3-methylglutaric acid, conduritol-beta-epoxide, hippuric acid, pseudo uridine, hydroxyproline dipeptide, 4-hydroxyhippuric acid) as compared to the younger, healthier cohort of organs.

mouse kidneys = assay: TUNEL staining for cell death in cold stored mouse kidneys; conditions: 2 mg/kg total mouse weight in University of Wisconsin cold preservation solution, flush at organ recovery and storage, 72 hours cold storage
Source text: as §1, §2
Bax KO or Wildtype mice (3× per group) were euthanized and then organs recovered following standard organ transplant procedures. […] At the proscribed time points, kidneys were snap frozen for subsequent cell death assessment by fluorescent TUNEL staining of frozen sections collected on an EVOS2 scope. Quantification of TUNEL staining was performed with custom matlab code following standard image analysis procedures.
as §3

Compound | cell death during prolonged cold storage (TUNEL staining) (pig kidneys) | cell death in human organ culture after a period of warm injury (human organ culture; after a period of warm injury) | cell death in human organ culture during cold storage (human organ culture; during cold storage) | cell death during prolonged cold storage (TUNEL staining) (mouse kidneys)
OC(CN1CCNCC1)Cn1c2ccc(Br)cc2c2cc(Br)ccc21 (stereo not shown) [BAI1] | prevents cell death | significantly decreased cell death | significantly decreased cell death | prevents cell death; also recorded: abrogates cell death
COC(=O)C[C@H](NC(=O)[C@H](C)NC(=O)[C@@H](NC(=O)OCc1ccccc1)C(C)C)C(=O)CF [Z-VAD-FMK] (Cbz-Val-Ala-Asp(OMe)-CH2F) | – | – | – | did not appear to reduce the amount of cell death
CCOC(=O)c1ccc(NC2CCCCC2)c(N)c1 [ferrostatin-1] | – | – | – | did not appear to reduce the amount of cell death
CN1C(=O)C(Cc2c[nH]c3ccccc23)NC1=S (stereo not shown) [necrostatin-1] | – | – | – | did not appear to reduce the amount of cell death

— patent US20250134095A1, “COMPOSITIONS FOR ORGAN AND TISSUE PRESERVATION” (Albert Einstein College of Medicine, priority 2021, published 2025)
